The record followed here is patent publication US9295708B2, “Modified release formulations for oprozomib” (Onyx Therapeutics, Inc., priority 2012, dated 2016).

The data set is described as follows: API solubility in water. It is filed as physicochemical.

≈ marks a conversion by molar mass, not a printed value.

`COC[C@H](NC(=O)c1cnc(C)s1)C(=O)N[C@@H](COC)C(=O)N[C@@H](Cc1ccccc1)C(=O)[C@@]1(C)CO1` [API, Oprozomib]: the solubility was roughly 500 µg/mL (≈ 939 µM).
